Data on 13 molecules can be found in US20140194473A1, “IMIDAZOLE FUNGICIDES” (E I Du Pont De Nemours And Company, priority 2013, published 2014).

Assay type in all cases: in vivo
In experiment [1] the test system is Septoria tritici. The experiment can be described thus: Test D: wheat leaf blotch, preventive spray on wheat seedlings. Particulars: 40 ppm test suspension sprayed to run-off on wheat seedlings, inoculated the following day; 100 = 100% disease control, 0 = no control; triplicate, averaged. As to the method:
(§1) General protocol for preparing test suspensions for Tests A-G: the test compounds were first dissolved in acetone in an amount equal to 3% of the final volume and then suspended at the desired concentration (in ppm) in acetone and purified water (50/50 mix by volume) containing 250 ppm of the surfactant Trem® 014 (polyhydric alcohol esters). The resulting test suspensions were then used in Tests A-G. Each test was conducted in triplicate, and the results were averaged. Spraying a 40 ppm test suspension to the point of run-off on the test plants was the equivalent of a rate of about 160 g/ha. Unless otherwise indicated, the rating values indicate a 40 ppm test suspension was used.
The test suspension was sprayed to the point of run-off on wheat seedlings. The following day the seedlings were inoculated with a spore suspension of Septoria tritici (the causal agent of wheat leaf blotch) and incubated in saturated atmosphere at 24° C. for 48 h. and then the seedlings were moved to a growth chamber at 20° C. for 19 additional days, after which time visual disease ratings were made.
(§2) Results for Tests A-G are given in Table A. In the Table, a rating of 100 indicates 100% disease control and a rating of 0 indicates no disease control (relative to the controls). A hyphen (-) indicates no test results.

For experiment [2], the system named is Septoria nodorum. Kind of experiment: Test C: Septoria glume blotch, preventive spray on wheat seedlings. The settings on record: 40 ppm test suspension sprayed to run-off on wheat seedlings, inoculated the following day; 100 = 100% disease control, 0 = no control; triplicate, averaged. As for the experimental part: as §1
The test suspension was sprayed to the point of run-off on wheat seedlings. The following day the seedlings were inoculated with a spore suspension of Septoria nodorum (the causal agent of Septoria glume blotch) and incubated in a saturated atmosphere at 24° C. for 48 h, and then moved to a growth chamber at 20° C. for 9 days, after which time visual disease ratings were made.
as §2

Experiment [3] deals with Alternaria solani. The experiment can be described thus: Test B: tomato early blight, preventive spray on tomato seedlings. Particulars: 40 ppm test suspension sprayed to run-off on tomato seedlings, inoculated the following day; 100 = 100% disease control, 0 = no control; triplicate, averaged. As for the experimental part: as §1
The test suspension was sprayed to the point of run-off on tomato seedlings. The following day the seedlings were inoculated with a spore suspension of Alternaria solani (the causal agent of tomato early blight) and incubated in a saturated atmosphere at 27° C. for 48 h, and then moved to a growth chamber at 20° C. for 5 days, after which time visual disease ratings were made.
as §2

Experiment [4] concerns Botrytis cinerea. The experiment can be described thus: Test A: tomato Botrytis, preventive spray on tomato seedlings. The settings on record: 40 ppm test suspension sprayed to run-off on tomato seedlings, inoculated the following day; 100 = 100% disease control, 0 = no control; triplicate, averaged. As for the experimental part:
as §1
The test suspension was sprayed to the point of run-off on tomato seedlings. The following day the seedlings were inoculated with a spore suspension of Botrytis cinerea (the causal agent of tomato Botrytis) and incubated in saturated atmosphere at 20° C. for 48 h, and then moved to a growth chamber at 24° C. for 3 additional days, after which time visual disease ratings were made.
as §2

Experiment [5] concerns Puccinia recondite f. sp. tritici. Kind of experiment: Test F: wheat leaf rust, preventive spray on wheat seedlings. The settings on record: 40 ppm test suspension sprayed to run-off on wheat seedlings, inoculated the following day; 100 = 100% disease control, 0 = no control; triplicate, averaged. As to the method:
as §1
The test suspension was sprayed to the point of run-off on wheat seedlings. The following day the seedlings were inoculated with a spore suspension of Puccinia recondite f. sp. tritici (the causal agent of wheat leaf rust) and incubated in a saturated atmosphere at 20° C. for 24 h, and then moved to a growth chamber at 20° C. for 6 days, after which time visual disease ratings were made.
as §2

Experiment [6] has as its system Blumeria graminis f. sp. tritici. The experiment can be described thus: Test G: wheat powdery mildew, preventive spray on wheat seedlings. Particulars: 40 ppm test suspension sprayed to run-off on wheat seedlings, inoculated with spore dust the following day; 100 = 100% disease control, 0 = no control; triplicate, averaged. As for the experimental part:
as §1
The test suspension was sprayed to the point of run-off on wheat seedlings. The following day the seedlings were inoculated with a spore dust of Blumeria graminis f. sp. tritici (also known as Erysiphe graminis f. sp. tritici, the causal agent of wheat powdery mildew) and incubated in a growth chamber at 20° C. for 8 days, after which time visual disease ratings were made.
as §2

Experiment [7] concerns Puccinia recondite f. sp. tritici. The experiment can be described thus: Test E: wheat leaf rust, spray after inoculation of wheat seedlings. Particulars: 40 ppm test suspension sprayed on wheat seedlings after inoculation (24 h incubation, then 2 days in growth chamber); 100 = 100% disease control, 0 = no control; triplicate, averaged. As to the method:
as §1
Wheat seedlings were inoculated with a spore suspension of Puccinia recondite f. sp. tritici (the causal agent of wheat leaf rust) and incubated in a saturated atmosphere at 20° C. for 24 h, and then moved to a growth chamber at 20° C. for 2 days. After 2 days, the test suspension was sprayed to the point of run-off on the wheat seedlings, and then the seedlings were moved back to the growth chamber at 20° C. for 4 days. Upon removal, visual disease ratings were made.
as §2

`Cc1ncn(Nc2ccc(F)cc2Cl)c1-c1ccc(F)cc1F` [Compound 1, N-(2-chloro-4-fluorophenyl)-5-(2,4-difluorophenyl)-4-methyl-1H-imidazol-1-amine]: the “Test D rating (disease control)” value in experiment [1] was 92%. In experiment [2], the “Test C rating (disease control)” value came to 0%. In experiment [3], the “Test B rating (disease control)” value is 70%. The “Test A rating (disease control)” value in experiment [4] is reported as 100%. The “Test F rating (disease control)” value in experiment [5] came out at 95%. Moreover, in experiment [6], the “Test G rating (disease control)” value was 91%.

Regarding `Cc1nc(Br)n(Nc2ccc(F)cc2Cl)c1-c1ccc(F)cc1F` [Compound 2, 2-bromo-N-(2-chloro-4-fluorophenyl)-5-(2,4-difluorophenyl)-4-methyl-1H-imidazol-1-amine], the “Test D rating (disease control)” value in experiment [1] came out at 100%. The “Test C rating (disease control)” value in experiment [2] was determined as 60%. The “Test B rating (disease control)” value in experiment [3] was 0%. The “Test E rating (disease control)” value in experiment [7] was 30%. Further, the “Test A rating (disease control)” value in experiment [4] turned out to be 99%. In addition, the “Test F rating (disease control)” value in experiment [5] was 99%. Moreover, the “Test G rating (disease control)” value in experiment [6] was found to be 100%.

As to `Cc1ncn(Nc2ccc(Cl)cc2Cl)c1-c1ccc(F)cc1` [Compound 3], in experiment [1], the “Test D rating (disease control)” value came out at 99%. In addition, the “Test C rating (disease control)” value in experiment [2] is on record as 0%. Also, the “Test B rating (disease control)” value in experiment [3] amounted to 0%. The “Test E rating (disease control)” value in experiment [7] is reported as 0%. Moreover, the “Test F rating (disease control)” value in experiment [5] is reported as 41%. In addition, the “Test G rating (disease control)” value in experiment [6] came to 0%.

As to `Cc1nc(Br)n(Nc2ccc(Cl)cc2Cl)c1-c1ccc(Cl)cc1` [Compound 5], in experiment [1], the “Test D rating (disease control)” value turned out to be 99%. Moreover, in experiment [2], the “Test C rating (disease control)” value is reported as 0%. Further, the “Test B rating (disease control)” value in experiment [3] was 0%. In experiment [7], the “Test E rating (disease control)” value worked out at 0%. Further, the “Test F rating (disease control)” value in experiment [5] was 9%. The “Test G rating (disease control)” value in experiment [6] worked out at 0%.

As for `Cc1nc(Br)n(Nc2ccc(Cl)cc2Cl)c1-c1ccc(F)cc1` [Compound 6], the “Test D rating (disease control)” value in experiment [1] stood at 93%. Further, in experiment [2], the “Test C rating (disease control)” value came out at 0%. The “Test B rating (disease control)” value in experiment [3] turned out to be 0%. In addition, the “Test A rating (disease control)” value in experiment [4] was determined as 16%. In experiment [5], the “Test F rating (disease control)” value came out at 55%. Besides, in experiment [6], the “Test G rating (disease control)” value came to 0%.

In the case of `Cc1ncn(Nc2ccc(Cl)cc2Cl)c1-c1ccc(F)cc1F` [Compound 7, 5-(2,4-difluorophenyl)-N-(2,4-dichlorophenyl)-4-methyl-1H-imidazol-1-amine], the “Test D rating (disease control)” value in experiment [1] was found to be 100%. Moreover, the “Test C rating (disease control)” value in experiment [2] stood at 0%. The “Test B rating (disease control)” value in experiment [3] was determined as 0%. For the same molecule, the “Test E rating (disease control)” value in experiment [7] was 0%. Also, the “Test A rating (disease control)” value in experiment [4] is given as 100%. In addition, the “Test F rating (disease control)” value in experiment [5] is recorded as 97%. For the same molecule, in experiment [6], the “Test G rating (disease control)” value was determined as 91%.

For `Cc1nc(Br)n(Nc2c(Cl)cc(Cl)cc2Br)c1-c1ccc(F)cc1F` [Compound 8, N-(2-bromo-4,6-dichlorophenyl)-4-methyl-2-bromo-5-(2,4-difluorophenyl)-1H-imidazol-1-amine], in experiment [1], the “Test D rating (disease control)” value is on record as 100%. Also, the “Test C rating (disease control)” value in experiment [2] is 0%. The “Test B rating (disease control)” value in experiment [3] is on record as 9%. Besides, the “Test E rating (disease control)” value in experiment [7] was determined as 19%. Moreover, in experiment [4], the “Test A rating (disease control)” value is listed as 99%. For the same molecule, the “Test F rating (disease control)” value in experiment [5] was found to be 100%. For the same molecule, the “Test G rating (disease control)” value in experiment [6] worked out at 98%.

Consider `Cc1ncn(Nc2ccc(F)cc2F)c1-c1ccc(F)cc1F` [Compound 9], for which the “Test D rating (disease control)” value in experiment [1] stood at 79%. For the same molecule, in experiment [2], the “Test C rating (disease control)” value is 0%. Also, the “Test B rating (disease control)” value in experiment [3] is given as 0%. Moreover, the “Test E rating (disease control)” value in experiment [7] was 36%. The “Test A rating (disease control)” value in experiment [4] came out at 87%. Besides, the “Test F rating (disease control)” value in experiment [5] is on record as 14%. For the same molecule, the “Test G rating (disease control)” value in experiment [6] was 0%.

In the case of `Cc1nc(Br)n(Nc2ccc(F)cc2F)c1-c1ccc(F)cc1F` [Compound 10, 2-bromo-N,5-bis(2,4-difluorophenyl)-4-methyl-1H-imidazol-1-amine], the “Test D rating (disease control)” value in experiment [1] was found to be 100%. Moreover, the “Test C rating (disease control)” value in experiment [2] came out at 0%. For the same molecule, in experiment [3], the “Test B rating (disease control)” value is 40%. For the same molecule, the “Test E rating (disease control)” value in experiment [7] worked out at 7%. For the same molecule, in experiment [4], the “Test A rating (disease control)” value stood at 99%. In addition, in experiment [5], the “Test F rating (disease control)” value worked out at 100%. Also, the “Test G rating (disease control)” value in experiment [6] is given as 96%.

On to `Fc1cc(F)c(Nn2c(Cl)nc(Cl)c2-c2ccc(Cl)cc2Cl)c(Cl)c1` [Compound 11, N-(2-chloro-4,6-difluorophenyl)-2,4-dichloro-5-(2,4-dichlorophenyl)-1H-imidazol-1-amine], for which, in experiment [1], the “Test D rating (disease control)” value was determined as 0%. Further, the “Test C rating (disease control)” value in experiment [2] is listed as 0%. Further, the “Test B rating (disease control)” value in experiment [3] amounted to 0%. In experiment [7], the “Test E rating (disease control)” value is 0%. Also, the “Test A rating (disease control)” value in experiment [4] was 0%. Further, the “Test F rating (disease control)” value in experiment [5] is reported as 0%. For the same molecule, the “Test G rating (disease control)” value in experiment [6] is reported as 52%.

Consider `Fc1ccc(-c2c(C(Cl)Cl)nc(Cl)n2Nc2ccc(F)cc2Cl)c(F)c1` [Compound 12], for which the “Test D rating (disease control)” value in experiment [1] is given as 89%. Moreover, the “Test C rating (disease control)” value in experiment [2] amounted to 0%. For the same molecule, in experiment [3], the “Test B rating (disease control)” value was 0%. Further, in experiment [7], the “Test E rating (disease control)” value was determined as 0%. Besides, in experiment [4], the “Test A rating (disease control)” value is 0%. Moreover, in experiment [5], the “Test F rating (disease control)” value amounted to 86%. Moreover, the “Test G rating (disease control)” value in experiment [6] is given as 73%.

In the case of `Fc1ccc(-c2c(CCl)nc(Cl)n2Nc2ccc(F)cc2Cl)c(F)c1` [Compound 13], the “Test D rating (disease control)” value in experiment [1] is recorded as 97%. In experiment [2], the “Test C rating (disease control)” value stood at 0%. Also, the “Test B rating (disease control)” value in experiment [3] turned out to be 0%. The “Test E rating (disease control)” value in experiment [7] was found to be 0%. The “Test A rating (disease control)” value in experiment [4] is 66%. Moreover, the “Test F rating (disease control)” value in experiment [5] is given as 95%. Also, in experiment [6], the “Test G rating (disease control)” value is listed as 98%.

`Fc1ccc(Nn2c(Br)nc(Br)c2-c2ccc(Cl)cc2Cl)c(F)c1` [Compound 14]: in experiment [1], the “Test D rating (disease control)” value stood at 0%. In experiment [2], the “Test C rating (disease control)” value amounted to 0%. In addition, the “Test B rating (disease control)” value in experiment [3] stood at 0%. Besides, the “Test E rating (disease control)” value in experiment [7] is listed as 0%. The “Test A rating (disease control)” value in experiment [4] is given as 0%. The “Test F rating (disease control)” value in experiment [5] was 0%. The “Test G rating (disease control)” value in experiment [6] amounted to 0%.
